For assay [1], the system named is pancreatic β cell (MIN6 cell). Kind of assay: Inhibition of binding of [3H]-labeled Compound 16 to pancreatic β cell. Further details: species or system murine. The settings on record: test compound 1 μmol/l; 10 nmol/l [3H]-labeled Compound 16; MIN6 cell, 4° C. On the procedure:
MIN6 cell cultured to almost confluence in a 24-well plate for cell culture (manufactured by Corning) was washed twice with KRH buffer (119 mmol/l NaCl, 4.74 mmol/KCl, 2.54 mmol/l calcium chloride (CaCl2), 1.19 mmol/l magnesium sulfate (MgSO4), 1.19 mmol/l potassium dihydrogen phosphate (KH2PO4), 10 mmol/l HEPES, 2 mmol/l glucose, 0.1 w/v % bovine serum albumin (BSA), pH 7.3). Subsequently, the KRH buffer was added at 1 ml per well, for preincubation at 37° C. for 45 minutes. After preincubation, the supernatant was discarded, and 0.15 ml of the KRH buffer, […] at 4° C. for one hour or longer until the reaction reached equilibrium. Subsequently, the cell was washed twice using the KRH buffer. The KRH buffer was added at 2 ml per well, which was then left to stand at room temperature for 20 minutes. The cell was again washed twice by using the KRH buffer. The radioactivity remaining in each well was counted with a liquid scintillation counter to determine the binding amount.
The difference between the binding amount of the [^3H]-labeled Compound 16 (total binding amount) under conditions with no addition of any test compound and the binding amount of the [^3H]-labeled Compound 16 (non-specific binding amount) under conditions in the presence of the Compound 16 at 10 μmol/l was defined as specific binding amount.
According to the method described in Example 5, a substance having anti-diabetic activity was screened for, using the inhibitory activity of the binding between pancreatic β cells and [^3H]-labeled Compound 16. A tested substance was dissolved in dimethylsulfoxide and then added to give a final concentration of 1 μmol/l. The radioactivity with addition of the unlabeled Compound 16 was defined as the non-specific binding amount and the radioactivity without addition of the unlabeled Compound 16 was defined as the total binding amount, and then the individual specific binding amounts were calculated by the method described in Example 6. Using the following formula, the binding inhibition ratio was determined. [formula]

A further assay relates to MIN6 cell. Kind of assay: Insulin secretion test using MIN6 cell. The assay is classed as cell-based, murine. The settings on record: MIN6 cell; glucose 14.5 mmol/l or 8.4 mmol/l. On the procedure:
Culturing MIN6 cell and testing insulin secretion using MIN6 cell were carried out according to the method described in Diabetorogia, 36, 1139-1145 (1993).
In other words, the influence of a compound on the insulin secretion activity in the presence of 14.5 mmol/l glucose was assessed by assaying the amount of insulin in the cell culture supernatant collected as follows.
The MIN6 cell cultured in a 24-well plate was washed twice with 1 ml of buffer A [119 mmol/l NaCl, 4.74 mmol/l KCl, 2.54 mmol/l CaCl2, 1.19 mmol/l MgSO4, 1.19 mmol/l KH2PO4, 10 mmol/l 2-[4-(2-hydroxylethyl)-1-piperadinyl]ethanesulfonic acid, 0.1% BSA, pH 7.3] containing 2 mmol/l glucose. Subsequently, the resulting cell was incubated in 1 ml of the buffer A containing 2 mmol/l glucose at 37° C. for 45 minutes. The culture supernatant was exchanged with the buffer A (1 ml) containing test compounds of various concentrations and 8.4 mmol/l glucose and incubated at 37° C. for 45 minutes to collect the culture supernatant.
Antibody-reactive insulin secreted in the culture supernatant was assayed by radioimmunoassay [Methods in Investigative and Diagnostic Endocrinology, Vol. 2A, 2B, North-Holland Publishing Co., Amsterdam (1973)] after the culture supernatant was diluted with phosphate buffer containing 1% BSA, 0.1% Tween 20, 0.12% EDTA 2Na, and 0.1% sodium azide. A standard curve was prepared by using human insulin as the standard substance, and individual insulin values were calculated on the basis of the curve.

The target of another assay is T1, p31 protein (Mus musculus, UniProt Q99LB2).
T1 construct: endogenous in cells; host or cells: MIN6 (murine pancreatic beta cell line), digitonin-solubilized membrane fraction
T1 sequence (Q99LB2 20-279 limits assumed): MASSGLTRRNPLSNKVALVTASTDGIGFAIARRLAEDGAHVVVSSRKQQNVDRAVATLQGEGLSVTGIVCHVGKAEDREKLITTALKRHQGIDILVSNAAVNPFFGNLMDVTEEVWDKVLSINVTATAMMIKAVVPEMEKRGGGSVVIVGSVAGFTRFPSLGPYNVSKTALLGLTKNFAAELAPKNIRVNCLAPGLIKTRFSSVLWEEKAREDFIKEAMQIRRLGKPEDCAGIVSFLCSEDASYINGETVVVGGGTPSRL
Kind of assay: Inhibition of binding of p31 protein from MIN6 solubilized membrane fraction to Compound 155-immobilized particle (SDS-PAGE). The settings on record: 500 μmol/l tested substance, band on SDS-PAGE. The procedure:
The solubilized membrane fraction of MIN6 as prepared in Example 12 was 10-fold diluted with the buffer B. The compound represented by Compound No. 16 (hereinafter referred to as “Compound 16”) at 500 μmol/l was added to 1 ml of the resulting dilution and gently stirred at 4° C. for 2 hours. As a control, the solubilized membrane fraction of MIN6 without addition of the Compound 16 was 10-fold diluted with buffer C [20 mmol/l HEPES, pH 7.4, 2 mmol/l EDTA, 150 mmol/l NaCl, 1% digitonin, 1 mmol/l PMSF, 1 μg/ml aprotinin], and 1 ml of the resulting dilution was gently stirred at 4° C. for 2 hours. Then, a particle immobilizing a compound represented by Compound No. 155 (hereinafter referred to as “Compound 155-immobilized particle”) as prepared in Example 8 was added to the solubilized membrane fraction solution with addition of the Compound 16 and the solubilized membrane fraction solution without addition of any tested substance and gently stirred at 4° C. for 30 minutes. Subsequently, the resulting solutions were centrifuged (12,000 rpm, one minute, 4° C.) to precipitate the particle to thereby remove the supernatants. Then, 750 μl of the buffer C was added and stirred for 3 seconds, followed by centrifugation (12,000 rpm, one minute, 4° C.), to precipitate the particle to remove the supernatant. Then, 750 μl of buffer D [20 mmol/l HEPES, pH 7.4, 2 mmol/l EDTA] was added and stirred for 3 seconds, followed by centrifugation (12,000 rpm, one minute, 4° C.), to precipitate the particle to remove the supernatant. Subsequently, 30 μl of an SDS-polyacrylamide gel electrophoresis sample buffer containing β-mercaptoethanol was added to solubilize the protein binding to Compound 155-immobilized particle, followed by SDS-polyacrylamide gel electrophoresis. Through the purification from the cell extract solution by adding Compound 16 via Compound 155-immobilized particle, p31 protein in which its specific binding to Compound 155-immobilized particle was inhibited by the compound represented by Compound No. 16 was found. […]

The structures appear in SMILES notation.

For the molecule `CCCN1C(=O)N2CC(Cc3ccccc3)N=C2c2[nH]c(C3CCCC3)nc21` (single isomer, unassigned) [compound 17], the “Binding inhibitory activity (%)” value in assay [1] was determined as 5.4%. The “Insulin secretory activity (%)” value in the assay with MIN6 cell turned out to be 15.8%. Further, the “inhibition of the binding of the p31 protein to the Compound 155-immobilized particle” value on p31 protein is reported as “cannot inhibit the binding of the p31 protein”.

Source of the values: US20070191402A1, “Method of searching substrate having antidiabetic activity” (KYOWA HAKKO KOGYO CO., LTD., priority 2002, published 2007).
